Test results as given in patent publication US9399623B2, “Quinoline derivatives and their use in neurodegenerative diseases” (Merck Patent GmbH, priority 2014, dated 2016).

Legend:
P2X7 [1] = molecular target: T1, P2X7 (Homo sapiens, UniProt Q99572); assay: IL-1β release assay in THP-1 cells (sandwich ELISA); type: cell-based; parameters: release of mature IL-1β in the culture medium of THP-1 cells; endogenous in cells; host or cells: THP-1 cells (PMA-differentiated, LPS-primed); conditions: PMA, LPS primed, stimulated with 0.8 mM BzATP, mature IL-1β release, read-out: hTHP-1/IL-ib IC50
T1 sequence (Q99572 1-595): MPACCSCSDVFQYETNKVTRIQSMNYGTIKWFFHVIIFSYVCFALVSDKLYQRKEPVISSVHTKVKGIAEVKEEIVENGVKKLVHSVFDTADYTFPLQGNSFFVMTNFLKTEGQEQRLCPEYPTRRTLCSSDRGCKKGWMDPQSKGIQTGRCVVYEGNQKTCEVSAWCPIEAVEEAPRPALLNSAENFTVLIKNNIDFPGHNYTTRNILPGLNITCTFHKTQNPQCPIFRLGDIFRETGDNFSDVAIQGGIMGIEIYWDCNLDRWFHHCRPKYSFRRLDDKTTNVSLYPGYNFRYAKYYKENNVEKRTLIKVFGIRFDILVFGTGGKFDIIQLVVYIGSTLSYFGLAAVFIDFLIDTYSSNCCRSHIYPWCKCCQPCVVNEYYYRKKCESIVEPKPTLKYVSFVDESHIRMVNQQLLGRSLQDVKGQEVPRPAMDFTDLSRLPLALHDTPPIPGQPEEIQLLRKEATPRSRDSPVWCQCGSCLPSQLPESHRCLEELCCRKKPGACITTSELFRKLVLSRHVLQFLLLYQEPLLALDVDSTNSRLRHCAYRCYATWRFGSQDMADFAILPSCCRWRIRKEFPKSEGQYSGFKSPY
Procedure: The activation of P2X7 by ATP leads to a fast transient activation of cells resulting in influx of Ca^2+ followed by conversion of pro-IL-1β to active IL-1β. The functional activity of P2X7 compounds was measured by the release of mature IL-1β in the culture medium of THP-1 cells, detected by sandwich ELISA. Cells were maintained in complete growth medium (RPMI 1640+10% HI-FCS+2 mM L-glutamine+1×PS). […] THP-1 cells were harvested from the flask in 50 ml by centrifugation for 3 min at 100 g. The cells were resuspended to 2×10^5 cells/ml in medium supplemented with 0.5 μM PMA and incubated. The cells were washed and resuspended to 1.5×10^5 cells/ml in medium complemented with 10 ng/ml LPS, and the cells were primed for 4 h at 37° C., 5% CO2. After addition of 20 μL of prediluted test compounds, blank, standard and control reagents, cells were incubated for a further 20 min at 37° C. and stimulated with 0.8 mM BzATP for 30 minutes. The cells were centrifuged, supernatant was collected and the presence of mature IL-1β was detected using Dual human IL-1b kit following manufacturer's instruction. The tetrahydrobenzodiazepine analogs effectively modulated the activity of P2X7 in the cells as measured by the levels of pro-inflammatory cytokine IL-1β, which is released by the activation of P2X7 receptor.

P2X7 [2] = molecular target: T1, P2X7; assay: Pore permeation assay (YO PRO dye uptake, BzATP-induced); type: cell-based; parameters: expressed in transfected cells; host or cells: HEK293; conditions: HEK293 transfected with human P2X7 receptor; YO PRO dye 1 uM, BzATP 10 uM; read-out: hP2X7 IC50
Procedure: Agonist-induced pore formation was determined by measuring cellular uptake of YO PRO fluorescence dye in HEK293 transfected with human P2X7 receptor. A HEK293 cell over expressing human P2X7 was harvested using HQTase reagent to detach the cells from T75 cm flask. The harvested cells are centrifuged @ 1200 rpm for 5 min at room temperature. The viability of cells was determined by Trypan blue dye and the cells are plated @ 10,000 cell/well in 50 ul volume in a 384 W BD Poly lysine coated plate and incubated overnight at 37 C. After overnight incubation, the culture medium was replaced with 35 ul/well assay buffer (5 mM KCl, 0.1 mM CaCl2, 5 mM Glucose, 10 mM HEPES buffer pH7.4 containing 125 mM NaCl. The serial dilution of compounds was performed using Bravo liquid handling instrument and the compounds were added using Bravo to the cell assay plate starting at 2.5 uM with three dilutions for 10 points. The positive control inhibitor compound was added to column 23. The plate was shaken slowly on a plate shaker for 10 seconds. The cells were incubated with the compound for 20 minutes at room temperature. After the incubation period, YO PRO dye (1 uM) along with BzATP (10 uM) were added to cells at 10 ul/well. The plate was centrifuged at 1000 rpm for 5 seconds and incubated at room temperature for 30 minutes. The uptake of YO PRO dye into the cells was measured using Envision Fluorescence plate reader instrument (Perkin Elmer).

Row | IC50 (P2X7 [1]) | IC50 (P2X7 [2]) | SMILES
1 | 10 to 100 nM | < 10 nM | C[C@@H]1CCC[C@](O)(CNC(=O)c2c(Cl)ccc3nc(N4CCC(F)(F)C4)ccc23)C1 [Compound 10, 6-Chloro-2-(3,3-difluoropyrrolidin-1-yl)-quinoline-5-carboxylic acid ((1R,3R)-1-hydroxy-3-methyl-cyclohexylmethyl)-amide]
2 | 101 to 500 nM | < 10 nM | O=C(NCC1CCC(F)(F)CC1)c1c(Cl)ccc2nc(N3CC[C@H](CCO)C3)ccc12 [Compound 11, 6-Chloro-2-((R)-3-hydroxyethyl-pyrrolidin-1-yl)-quinoline-5-carboxylic acid (4,4-difluoro-cyclohexylmethyl)-amide]
3 | 101 to 500 nM | < 10 nM | O=C(NCC1CCC(F)(F)CC1)c1c(Cl)ccc2nc(N3CC[C@@H](CO)C3)ccc12 [Compound 12, 6-Chloro-2-((R)-3-hydroxymethyl-pyrrolidin-1-yl)-quinoline-5-carboxylic acid (4,4-difluoro-cyclohexylmethyl)-amide]
4 | < 10 nM | < 10 nM | C[C@@H]1CCC[C@](O)(CNC(=O)c2c(Cl)ccc3nc(N4CCC(N5CCCC5)C4)ccc23)C1 (stereo partly drawn) [Compound 13, 6-Chloro-2-(3-pyrrolidinyl-pyrrolidin-1-yl)-quinoline-5-carboxylic acid ((1R,3R)-1-hydroxy-3-methyl-cyclohexylmethyl)-amide]
5 | 10 to 100 nM | < 10 nM | CNC1CCN(c2ccc3c(C(=O)NCC4CCC(F)(F)CC4)c(Cl)ccc3n2)C1 (centres unmarked) [Compound 17, 6-Chloro-2-(3-methylamino-pyrrolidin-1-yl)-quinoline-5-carboxylic acid (4,4-difluoro-cyclohexylmethyl)-amide]
6 | 10 to 100 nM | < 10 nM | NC1CCN(c2ccc3c(C(=O)NCC4CCC(F)(F)CC4)c(Cl)ccc3n2)C1 (centres unmarked) [Compound 18]
7 | 10 to 100 nM | < 10 nM | O=C(NCC1CCC(F)(F)CC1)c1c(Cl)ccc2nc(C#CCO)ccc12 [Compound 19, 6-Chloro-2-(3-hydroxy-prop-1-ynyl)-quinoline-5-carboxylic acid (4,4-difluoro-cyclo hexylmethyl)-amide]
8 | 10 to 100 nM | 10 to 100 nM | CN(C)[C@H]1CCN(c2ccc3c(C(=O)NCC4(O)CCC(F)(F)CC4)c(Cl)ccc3n2)C1 [Compound 20, 6-Chloro-2-((S)-3-dimethylamino-pyrrolidin-1-yl)-quinoline-5-carboxylic acid (4,4-difluoro-1-hydroxy-cyclohexylmethyl)-amide]
9 | 10 to 100 nM | 10 to 100 nM | O=C(NCC1CCC(F)(F)CC1)c1c(Cl)ccc2nc(N3CCC(NCCO)C3)ccc12 (centres unmarked) [Compound 21]
10 | 10 to 100 nM | 10 to 100 nM | CN(C)[C@@H]1CCN(c2ccc3c(C(=O)NCC4(O)CCC(F)(F)CC4)c(Cl)ccc3n2)C1 [Compound 23, 6-Chloro-2-((R)-3-dimethylamino-pyrrolidin-1-yl)-quinoline-5-carboxylic acid (4,4-difluoro-1-hydroxy-cyclohexylmethyl)-amide]
11 | 10 to 100 nM | 10 to 100 nM | O=C(NC[C@@]1(O)CCCC(F)(F)C1)c1c(Cl)ccc2nc(N3CCC(F)(F)C3)ccc12 [Compound 24, 6-Chloro-2-(3,3-difluoropyrrolidin-1-yl)-quinoline-5-carboxylic acid ((R)-3,3-difluoro-1-hydroxycyclohexylmethyl)-amide]
12 | 10 to 100 nM | 10 to 100 nM | O=C(NCC1(O)CCCCCC1)c1c(Cl)ccc2nc(N3CCCC3)ccc12 [Compound 25]
13 | 101 to 500 nM | 10 to 100 nM | O=C(NCC1CCC(F)(F)CC1)c1c(Cl)ccc2nc(N3CC[C@@H](CCO)C3)ccc12 [Compound 26, 6-Chloro-2-((S)-3-hydroxyethyl-pyrrolidin-1-yl)-quinoline-5-carboxylic acid (4,4-difluoro-cyclohexylmethyl)-amide]
14 | 10 to 100 nM | 10 to 100 nM | O=C(NCC1(O)CCC(F)(F)CC1)c1c(Cl)ccc2nc(N3CCC(N4CCCC4)C3)ccc12 (centres unmarked) [Compound 27, 6-Chloro-2-(3-pyrrolidinyl-pyrrolidin-1-yl)-quinoline-5-carboxylic acid (4,4-difluoro-1-hydroxy-cyclohexylmethyl)-amide]
15 | 10 to 100 nM | 10 to 100 nM | CN(C)C1CCN(c2ccc3c(C(=O)NCC4(O)CCC(F)(F)CC4)c(Cl)ccc3n2)C1 (centres unmarked) [Compound 28, 6-Chloro-2-(3-dimethylamino-pyrrolidin-1-yl)-quinoline-5-carboxylic acid (4,4-difluoro-1-hydroxy-cyclohexylmethyl)-amide]
16 | 10 to 100 nM | 10 to 100 nM | O=C(NCC1CCC(F)(F)CC1)c1c(Cl)ccc2nc(N3CC[C@H](CO)C3)ccc12 [Compound 29, 6-Chloro-2-((S)-3-hydroxymethyl-pyrrolidin-1-yl)-quinoline-5-carboxylic acid (4,4-difluoro-cyclohexylmethyl)-amide]
17 | 10 to 100 nM | 10 to 100 nM | O=C(NCC1CCC(F)(F)CC1)c1c(Cl)ccc2nc(N3CCC(N4CCCC4)C3)ccc12 (centres unmarked) [Compound 30, 6-Chloro-2-(3-pyrrolidinyl-pyrrolidin-1-yl)-quinoline-5-carboxylic acid (4,4-difluoro-cyclohexylmethyl)-amide]
18 | 101 to 500 nM | 10 to 100 nM | O=C(NCC1CCC(F)(F)CC1)c1c(Cl)ccc2nc(C3=CCOCC3)ccc12 [Compound 31, 6-Chloro-2-(3,6-dihydro-2H-pyran-4-yl)-quinoline-5-carboxylic acid (4,4-difluoro-cyclo hexyl methyl)-amide]
19 | 10 to 100 nM | 10 to 100 nM | NC1CCN(c2ccc3c(C(=O)NCC4(O)CCCC(F)(F)C4)c(Cl)ccc3n2)C1 (centres unmarked) [Compound 32, 2-(3-Aminopyrrolidin-1-yl)-6-chloro-quinoline-5-carboxylic acid (3,3-difluoro-1-hydroxycyclohexylmethyl)-amide]
20 | 101 to 500 nM | 10 to 100 nM | O=C(NCC1CCC(F)(F)CC1)c1c(Cl)ccc2nc(N3CC[C@@H](F)C3)ccc12 [Compound 33, 6-Chloro-2-((R)-3-fluoropyrrolidin-1-yl)-quinoline-5-carboxylic acid (4,4-difluoro-cyclohexylmethyl)-amide]
21 | 10 to 100 nM | 10 to 100 nM | O=C(NCC1CCCC(F)(F)C1)c1c(Cl)ccc2nc(N3CCC(N4CCCC4)C3)ccc12 (centres unmarked) [Compound 34, 6-Chloro-2-(3-pyrrolidinyl-pyrrolidin-1-yl)-quinoline-5-carboxylic acid (3,3-difluoro-cyclohexylmethyl)-amide]
22 | 10 to 100 nM | 10 to 100 nM | O=C(NCC1CCCC(F)(F)C1)c1c(Cl)ccc2nc(N3CCC(CO)C3)ccc12 (centres unmarked) [Compound 35, 6-Chloro-2-(3-hydroxymethylpyrrolidin-1-yl)-quinoline-5-carboxylic acid (3,3-difluoro-cyclohexylmethyl)-amide]
